Patent US5473083A, “Reduced and quaternized psoralens as photo-activated therapeutics” (Lehigh University, priority 1994, dated 1995)
Counter-ions that a name gives are not always drawn.

Tested on: epidermal growth factor receptor (HeLa cells)
Test: Epidermal growth factor binding inhibition assay: 125I-EGF binding to HeLa cells after treatment with phototherapeutic and UVA
Assay type: cell-based, human
Settings: cells pulsed with 2.1 J/cm^2 of ultraviolet light (UVA, 320-400 nm) after treatment, 2 nM 125I-EGF, 2 h at 4° C., read-out: IC50, concentration of each compound inhibiting 125I-EGF binding to HeLa cells by 50%
Excerpt: The primary in vitro screen for the phototherapeutics described herein is based on our discovery that beneficial phototherapeutics inhibit binding in cells of epithelial origin with epidermal growth factor (EGF). Furthermore, the degree of effective competition in this EGF binding assay relates to the phototherapeutic effect of the test agent. [J. Laskin, E. Lee, D. Laskin, M. Gallo, Proc. Nat. Acad. Sci. (U.S.A.) 83:8211 (1986)].
Inhibition of EGF binding is dependent on dose of the phototherapeutic and on the quanta of light in the 320-400 nm wavelength (ultraviolet light A). It is also structure-dependent, that is, there is a direct correlation between those specific phototherapeutics currently used that are clinically active and their ability to inhibit the binding of epidermal growth factor to its receptor.
The ability of the above compounds in the presence of ultraviolet light, to inhibit epidermal growth factor binding to its cell surface receptor is directly related to its phototherapeutic potential. To assay these compounds for this biological activity, human cells (HeLa) grown in vitro were used. Cells (1.8×10^4 /cm^2) were inoculated into 5 cm culture dishes in growth medium consisting of Dulbecco's modified Eagle's medium supplemented with 10% newborn calf serum. After 4-5 days at 37° C. in a humidified CO2 incubator, the cells were washed three times with 2 ml of phosphate buffered saline and then incubated with the different phototherapeutics in 2 ml of Earle's salt solution supplemented with 5.2 mM D-glucose/25 mM Hepes buffer, pH 7.2. Control cultures were incubated in 2 ml of Earle's salt solution in the absence of the test drugs. After 30 minutes, the cells were then exposed to ultraviolet light (UVA, 320-400 nm) emitted from a bank of four BLB fluorescent light tubes (F40BL/Sylvania) placed approximately 10 cm above the cell culture plates. The incident light delivered onto the culture plates was 3.4 mW per cm^2 as measured with an International Light UV-Radiometer and the cells received 2.1 J/cm^2 of UVA light. After this light exposure, the cells were rinsed with phosphate buffered saline and submitted for assay of epidermal growth factor binding. Phototherapeutic treated cells were then incubated for 2 hours at 4° C. with 2 ml of binding buffer (Dulbecco's modified Eagle's medium/25 mM Hepes buffer, pH 7.2) containing 2 nM labeled epidermal growth factor (^125 I-EGF, specific activity 200 Ci/g).
Nonspecific binding was determined by incubating separate plates of cells with buffer containing the radioligand and excess unlabeled epidermal growth factor (1 microgram/ml). The binding reaction of the radioligand to the cells was terminated by aspirating the binding buffer from the culture dishes and washing the cells four times with ice cold phosphate buffered saline. The cells were then solubilized with 2 ml of 0.2M NaOH and duplicate 0.5 ml aliquots were taken for gamma counting. Specific binding of epidermal growth factor to its receptor was calculated by subtracting nonspecifically bound material from the total. Under the conditions of the assay, specific epidermal growth factor receptor binding represented greater than 80% of the total bound to the cells.
As a specific example of this assay, HeLa cells were treated with 4',5'-dihydropsoralen, followed by ultraviolet light exposure and then by measurement for epidermal growth factor binding. The data can be presented as a curve of epidermal growth factor receptor binding to the cells as a percentage of untreated cells. FIG. 1 is an example of 125-I EGF binding inhibition of 4',5'-dihydropsoralen and UVA. The concentration inhibiting epidermal growth factor binding to the cells by 50% (the IC50 value) is determined from the curve.
*IC50, concentration of each compound inhibiting 125I-EGF binding to
**Following treatment of the cells with the phototherapeutic they were
***Highest concentration tested

IC50 [µM]	SMILES
5	Cc1oc2c(C)c3oc(=O)cc(C)c3cc2c1C[N+](C)(C)C [4'-[(N,N,N,-trimethylannonium)methyl]-4,5',8-trimethylpsoralen iodide salt]
7	Cc1cc(=O)oc2c(C)c3c(cc12)CC(C)O3 (stereo not drawn) [4,5',8-trimethyl-4',5'-dihydropsoralen]
> 100	O=c1ccc2ccccc2o1 [coumarin, reference compound]

Same assay, conditions: read-out: IC50, concentration of each compound inhibiting 125I-EGF binding to HeLa cells by 50%, cells pulsed with 2.1 J/cm^2 of ultraviolet light (UVA, 320-400 nm) after treatment, 2 nM 125I-EGF, 2 h at 4° C.

SMILES	IC50 [µM]
CCOC(=O)c1cc2cc3c(cc2oc1=O)OCC3 [3-carboethoxy-4',5'-dihydropsoralen]	4.9
Cc1cc2cc3c(C)cc(=O)oc3c(C)c2o1 [4,5',8-trimethylpsoralen, reference compound]	6.6
Cc1c([N+](=O)[O-])c(=O)oc2c(C)c3c(cc12)CC(C)O3 (stereo not drawn) [3-nitro-4,5',8-trimethyl-4',5'-dihydropsoralen]	24
COc1c2c(cc3oc(=O)ccc13)OCC2 [5-methoxy-4',5'-dihydropsoralen]	2.8
O=c1ccc2cc3c(cc2o1)OCC3 [4',5'-dihydropsoralen]	11
COc1c2ccoc2cc2oc(=O)ccc12 [5-methoxypsoralen (5-MOP), 5-methoxypsoralen, reference compound]	1.6
Cc1cc(=O)oc2c(C)c3oc(CBr)cc3cc12 [5'-bromomethyl-4,8-dinethylpsoralen, 5'-Bromomethyl-4,8-dimethylpsoralen]	1.5
Cc1cc(=O)oc2c(C)c3oc(CBr)c(Br)c3cc12 [4'-Bromo-5'-bromomethyl-4,8-dimethylpsoralen]	3.6
Cc1cc(=O)oc2c(C)c3oc(C[n+]4ccccc4)cc3cc12 [5'-[(N-Pyridinium)methyl]-4,8-dimethylpsoralen Bromide Salt]	0.74
